# Reference: patent publication US11577063B2, “Soluble microneedle containing ingredient for controlling release of neurotransmitters” (LG HOUSEHOLD & HEALTH CARE LTD., priority 2015, dated 2023)
# Tests used:
# [1] = molecular target: SNARE complex (SNAP25, SynH3 and Vps proteins) (Homo sapiens, UniProt P60880+P63027+Q16623); assay: Inhibition of SNARE complex formation (SDS-PAGE); format: biochemical; conditions: FIG. 4; for ability of inhibiting SNARE complex formation compared with myricetin: at low concentrations; for inhibition of SNARE complex formation: polyphenol 1-50 ppm, room temperature 30 minutes, 12% SDS-PAGE
# Description: SDS-PAGE (sodium dodecyl sulfate-polyacrylamide gel electrophoresis) analysis was performed to investigate the inhibition of SNARE complex formation by polyphenols such as ampelopsin, kaempferol, myricetin, etc. It was investigated whether the SNARE complex formed when SNAP25, SynH3 and Vps proteins are mixed at a molar ratio of 1:1:1 was inhibited by the addition of the polyphenol compound at a concentration of 1-50 ppm. After adding the respective proteins dropwise into a 1-mL tube, the polyphenol compound was added and reaction was conducted at room temperature for 30 minutes. Then, it was investigated whether the SNARE complex was formed by electrophoresing on 12% SDS-PAGE.
# [2] = tested on: C2C12 cells co-cultured with neuroblasts; assay: Inhibition of muscle contraction by polyphenols, C2C12 cells co-cultured with neuroblasts; format: cell-based; conditions: FIG. 7; for number of contractions of the C2C12 cells: 50 ppm polyphenol, 2 hours incubation, contractions counted for 30 seconds; for effect of inhibiting neurotransmitter release compared with myricetin: 50 ppm, 2 hours
# Description: C2C12 cells were cultured in DMEM medium supplemented with 10% fetal calf serum and 1% antibiotic on a plate. Then, neuroblasts were co-cultured additionally on the same plate. When the C2C12 cells began contraction, the number of contractions by the C2C12 cells was measured for 30 seconds. Then, after completely removing the medium and washing 3 times with PBS, the cells were incubated for 2 hours after adding a calf serum-free medium and 50 ppm of the polyphenol compound. Then, the inhibition of muscle contraction was investigated by measuring the number of contractions of the C2C12 cells again for 30 seconds.
# [3] = Maximum content of ampelopsin in cosmetic composition or microneedle; format: physicochemical
# Description: When ampelopsin is prepared into a cosmetic composition, only less than 0.5% (based on 5% PEG-400 and 70% water) of ampelopsin can be contained in the cosmetic composition. In contrast, a microneedle prepared by the method according to the present disclosure may contain ampelopsin up to 5% based on the dry weight of the microneedle. Accordingly, a product containing the polyphenol at high concentration can be prepared.
# [4] = tested on: muscle cells and neuroblasts co-culture; assay: Inhibition of muscle contraction in vitro by magnesium gluconate, co-cultured muscle cells and neuroblasts; format: cell-based; conditions: various concentrations, observed 10 minutes after treatment; FIG. 9
# Description: After co-culturing muscle cells and neuroblasts in vitro and treating with magnesium gluconate at various concentrations, decrease in the number of muscle contractions was observed 10 minutes later.
# SNARE complex (SNAP25, SynH3 and Vps proteins), sequence (P60880 whole entry): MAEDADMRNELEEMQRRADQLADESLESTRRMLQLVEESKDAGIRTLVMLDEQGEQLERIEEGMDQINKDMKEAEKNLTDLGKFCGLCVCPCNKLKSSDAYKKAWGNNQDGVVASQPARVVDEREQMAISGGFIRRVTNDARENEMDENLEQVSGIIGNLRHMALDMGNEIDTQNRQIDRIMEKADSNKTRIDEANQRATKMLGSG
# SNARE complex (SNAP25, SynH3 and Vps proteins), sequence (Q16623 191-266 limits assumed): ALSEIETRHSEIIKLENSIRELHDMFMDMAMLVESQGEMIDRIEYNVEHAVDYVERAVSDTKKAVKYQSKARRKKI
# SNARE complex (SNAP25, SynH3 and Vps proteins), sequence (P63027 1-94 limits assumed): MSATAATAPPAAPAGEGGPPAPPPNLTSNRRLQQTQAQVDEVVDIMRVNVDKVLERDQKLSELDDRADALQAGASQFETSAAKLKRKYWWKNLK
ampelopsin content that can be contained in a cosmetic composition ([3]; based on 5% PEG-400 and 70% water),ampelopsin content that the microneedle may contain ([3]; based on the dry weight of the microneedle),Compound,ability of inhibiting SNARE complex formation compared with myricetin [1],inhibition of SNARE complex formation [1],number of contractions of the C2C12 cells [2],effect of inhibiting neurotransmitter release compared with myricetin [2],number of muscle contractions [4]
less than 0.5%,up to 5%,O=C1c2c(O)cc(O)cc2O[C@H](c2cc(O)c(O)c(O)c2)[C@H]1O [ampelopsin],better ability of inhibiting SNARE complex formation at low concentrations,effectively inhibit the SNARE complex formation in a concentration-dependent manner,reduce the number of contractions of the C2C12 cells,relatively higher effect of inhibiting the release than myricetin,
,,magnesium gluconate,,,,,significant decrease in the number of muscle contractions as the concentration of magnesium gluconate was increased
,,O=c1c(O)c(-c2cc(O)c(O)c(O)c2)oc2cc(O)cc(O)c12 [myricetin],,effectively inhibit the SNARE complex formation in a concentration-dependent manner,reduce the number of contractions of the C2C12 cells,,
,,O=c1c(O)c(-c2ccc(O)cc2)oc2cc(O)cc(O)c12 [kaempferol],better ability of inhibiting SNARE complex formation at low concentrations,effectively inhibit the SNARE complex formation in a concentration-dependent manner,reduce the number of contractions of the C2C12 cells,relatively higher effect of inhibiting the release than myricetin,
